Results from patent publication US5792466A, “Mimetic insect kinin analogs for insect control” (The United States of America, as represented by the …, priority 1996, dated 1998).
Entries after “also recorded” stand apart in the source; their conditions may differ. Where two headings read alike, the source gives them in different places. Ends that are not written are not given here. Peptide text beside a SMILES is read from it. QP = not defined here

Legend:
[1] = tested on: isolated Malpighian tubules of the cricket Acheta domesticus; test: Cricket Malpighian tubule secretion bioassay; assay type: cell-based; settings: for Cricket Malpighian tubule fluid secretion Maximum response (%): percentage of the response to a supermaximal dose (10 nM) of achetakinin-I, Aib analogs
From the text: Crickets were reared as described (Clifford et al., 1977, Ann. Entomol. Soc. Am., 70:69-74) and fed a diet of turkey starter crumbs. Water was provided ad lib. Malpighian tubules were removed from 6-12-day-old adult virgin females. Single tubules were isolated in vitro as described (Coast, G. M., 1988, Physiol. Entomol., 13:381-391). After a 40-min equilibration period, the bathing fluid was changed and the rate of secretion, in picoliters per millimeter length of tubule per minute (pl/mm/min), was determined over 40 min (control rate). Thereafter, the bathing fluid was exchanged for one containing the assay material and the rate of secretion was determined over an additional 40-min period (experimental rate). Diuretic activity was calculated as the difference between control and experimental rates, and results are expressed as a percentage of the response obtained with a supermaximal dose (10 nM) of achetakinin-I assayed alongside the test analogues. All experiments were performed at room temperature (21°-24° C.) (Coast et al., 1990, ibid).

[2] = tested on: isolated Leucophaea maderae cockroach hindgut; test: Cockroach hindgut myotropic bioassay; assay type: cell-based; settings: for potency in the cockroach hindgut myotropic assay relative to the most potent of the achetakinins (AK-IV): comparison of threshold concentrations; for Cockroach (Leucophaea maderae) hindgut contraction threshold (pM) ± (S.D.): minimum concentration evoking observable change in contractions, Aib analogs; for threshold activities on the isolated cockroach hindgut bioassay: values in M
Method: Leucophaea maderae cockroaches were taken from stock colonies maintained at 27° C. and fed dry dog food ad lib. Cockroach hindguts, free of central nervous system (CNS) tissue, were dissected, immersed in saline, and prepared for recording of myogenic activity as previously described [Holman et al., 1991, Insect Biochem., 21(1):107-112]. Threshold concentrations were determined for each analogue by adding a known quantity of peptide (dissolved in 0.5 ml bioassay saline) to the bioassay chamber containing the hindgut and observing the response on a Gould 2200S oscillograph recorder. The quantity of the peptide analogues was calculated from the values obtained for Phe in the amino acid analysis. The threshold concentration was defined as the minimum concentration of peptide in the chamber required to evoke an observable change in the frequency (50%) or amplitude of contractions (5%) within 1 min and sustained for 3 min. Threshold concentrations were obtained from five cockroach hindguts on 5 consecutive days for each peptide. Quantitative data for dose-response plots were obtained as previously described (Holman et al., 1991, ibid).

[3] = tested on: angiotensin converting enzyme (ACE) from the housefly Musca domestica; test: ACE enzyme hydrolysis trials; assay type: in vitro ADME; settings: pH 8.3, 37° C., over 120 minutes
Method: Musca ACE (Mr, 67,000) was purified from a soluble extract of adults as described elsewhere (Cornell et al., J. Biol. Chem., in press; Lamango and Isaac, J. Biol. Chem., in press) and yielded enzyme which appeared as a single band by SDS-PAGE. Unless otherwise stated, peptides (12-750 μM, final concentration) were incubated with Musca ACE in 100 mM Tris/HCl, pH 8.3 in the presence of 10 μM ZnCl2 and 0.3M NaCl at 37° C. Reactions (15 μl) were terminated either by heating to 100° C. for 5 min or by the addition of 5 μl of 8% (v/v) TFA, followed by centrifugation (13000 g, Microcentaur) for 2 min and diluted to 100 μl with 0.1% (v/v) TFA before HPLC analysis.
HPLC analysis was performed using a Pharmacia SuperPac Pep-S column (250 mm×4 mm, internal diameter) packed with 5 μm ODS particles. The solvent system comprised elution with 5% acetonitrile in 0.1% (v/v) trifluoroacetic acid for 3 min, followed by a linear increase of the acetonitrile component from 3 to 41% in 11 min (total run time of 14 min).

[4] = tested on: isolated Malpighian tubules of the cricket Acheta domesticus; settings: cited from earlier work; for EC50 / Cricket Malpighian tubule fluid secretion Maximum response (%): naturally occurring achetakinins; for EC50: read-out: Cricket (Acheta domesticus) Malpighian tubule fluid secretion EC50; for Cricket Malpighian tubule fluid secretion Maximum response (%): literature reference (6)
[5] = tested on: isolated Leucophaea maderae cockroach hindgut; settings: cited from earlier work; for Cockroach (Leucophaea maderae) hindgut contraction threshold (pM) ± (S.D.): naturally occurring achetakinins, Holman et al., 1990, reference (12); for potency in hindgut myotropic assay relative to parent or natural insect kinins: literature (Holman et al., 1987; Nachman et al., 1994)
[6] = tested on: angiotensin converting enzyme (ACE) from the housefly Musca domestica; settings: cited from earlier work
[7] = Lamango et al., Peptides, submitted

Molecule: CC(C)(NC(=O)[C@H](Cc1ccccc1)NC(=O)[C@@H](N)Cc1ccccc1)C(=O)N[C@@H](Cc1c[nH]c2ccccc12)C(=O)NCC(N)=O [Phe--Phe--Aib--Trp--Gly--NH2] (HELM PEPTIDE1{F.F.[Aib].W.G.[am]}$$$$V2.0)
- potency in the Malpighian tubule assay relative to the most potent naturally occurring achetakinin (AK-IV) / endogenous insect kinins ([1]; comparison of EC50 values): greater potency than the endogenous insect kinins
- Cricket Malpighian tubule fluid secretion Maximum response (%) [1]: 99%
- potency in the cockroach hindgut myotropic assay relative to the most potent of the achetakinins (AK-IV) [2]: roughly half as potent
- potency in the cockroach hindgut myotropic assay relative to the most potent of the achetakinins (AK-IV) ([2]; listed as first analog): one half as potent
- Cockroach (Leucophaea maderae) hindgut contraction threshold (pM) ± (S.D.) [2]: 100 pM
- threshold activities on the isolated cockroach hindgut bioassay [2]: 100 pM
- hydrolysis by angiotensin converting enzyme (ACE) [3]: complete resistance to ACE; also recorded: complete resistance to hydrolysis

Molecule: CC(C)(NC(=O)[C@H](Cc1ccccc1)NC(=O)[C@H](Cc1ccccc1)NC(=O)[C@H](CCCCNC(=O)[C@@H]1CCC(=O)N1)NC(=O)[C@@H]1CCC(=O)N1)C(=O)N[C@@H](Cc1c[nH]c2ccccc12)C(=O)NCC(N)=O [pGlu--Lys(pGlu)--Phe--Phe--Aib--Trp--Gly--NH2] (HELM PEPTIDE1{[Glp].K.F.F.[Aib].W.G.[am]}|PEPTIDE2{[Glp]}$PEPTIDE1,PEPTIDE2,2:R3-1:R2$$$V2.0)
- Cricket Malpighian tubule fluid secretion Maximum response (%) [1]: 103%
- potency in the cockroach hindgut myotropic assay relative to the most potent of the achetakinins (AK-IV) [2]: three orders of magnitude less potent
- Cockroach (Leucophaea maderae) hindgut contraction threshold (pM) ± (S.D.) [2]: 28,000 pM
- threshold activities on the isolated cockroach hindgut bioassay [2]: 28000 pM

Molecule: CC(C)(NC(=O)[C@H](Cc1ccccc1)NC(=O)[C@H](Cc1ccccc1)NC(=O)[C@H](CCCCN)NC(=O)[C@@H]1CCC(=O)N1)C(=O)N[C@@H](Cc1c[nH]c2ccccc12)C(=O)NCC(N)=O [pGlu--Lys--Phe--Phe--Aib--Trp--Gly--NH2] (HELM PEPTIDE1{[Glp].K.F.F.[Aib].W.G.[am]}$$$$V2.0)
- Cricket Malpighian tubule fluid secretion Maximum response (%) [1]: 101%
- potency in the cockroach hindgut myotropic assay relative to the most potent of the achetakinins (AK-IV) [2]: an order of magnitude more potent
- Cockroach (Leucophaea maderae) hindgut contraction threshold (pM) ± (S.D.) [2]: 3.5 pM
- threshold activities on the isolated cockroach hindgut bioassay [2]: 3.5 pM

Molecule: AFHSWG-NH2 [AK-V, A--Phe--His--Ser--Trp--Gly--NH2]
- EC50 ([4]; Coast et al., 1990): 0.018 nM
- Cricket Malpighian tubule fluid secretion Maximum response (%) [4]: 88%
- Cockroach (Leucophaea maderae) hindgut contraction threshold (pM) ± (S.D.) [5]: 43 pM

Molecule: ALPFSSWG-NH2 [AK-III, ALP--Phe--Ser--Ser--Trp--Gly--NH2]
- EC50 ([4]; Coast et al., 1990): 0.324 nM
- Cricket Malpighian tubule fluid secretion Maximum response (%) [4]: 108%
- Cockroach (Leucophaea maderae) hindgut contraction threshold (pM) ± (S.D.) [5]: 270 pM

Molecule: AYFSPWG-NH2 [AK-II, AY--Phe--Ser--Pro--Trp--Gly--NH2]
- EC50 ([4]; Coast et al., 1990): 0.022 nM
- Cricket Malpighian tubule fluid secretion Maximum response (%) [4]: 91%
- Cockroach (Leucophaea maderae) hindgut contraction threshold (pM) ± (S.D.) [5]: 48 pM

Molecule: DPGFSSWG-NH2 [LK-II, DPG--Phe--Ser--Ser--Trp--Gly--NH2]
- hydrolysis by ACE [6, 7]: hydrolyze

Molecule: FYPWG-NH2 [Phe--Tyr--Pro--Trp--Gly--NH2]
- potency in cricket Malpighian tubule secretion assay relative to parent nonapeptide ([4]; Coast et al., 1990): equipotent with the parent nonapeptide
- potency in hindgut myotropic assay relative to parent or natural insect kinins [5]: equipotent with the parent nonapeptide

Molecule: KFFPWG-NH2 [Lys--Phe--Phe--Pro--Trp--Gly--NH2]
- potency in hindgut myotropic assay relative to parent or natural insect kinins [5]: more active than the pentapeptide core and/or the naturally occurring insect kinins

Molecule: NFKFNPWG-NH2 [AK-IV, NFK--Phe--Asn--Pro--Trp--Gly--NH2]
- EC50 ([4]; Coast et al., 1990): 0.024 nM
- Cricket Malpighian tubule fluid secretion Maximum response (%) [4]: 96%
- Cockroach (Leucophaea maderae) hindgut contraction threshold (pM) ± (S.D.) [5]: 180 pM

Molecule: NNANVFYPWG-NH2 [Cus-DP-II, NNANV-Phe--Tyr--Pro--Trp--Gly--NH2]
- hydrolysis by ACE [6, 7]: hydrolyze

Molecule: QP--Phe--His--Ser--Trp--Gly--NH2 ({QP}-FHSWG-NH2; reading uncertain; also: printed as QP--Phe--His--Ser--Trp--Gly--NH2) [Cus-DP-I]
- hydrolysis by ACE [6, 7]: hydrolyze

Molecule: SGADFYPWG-NH2 [AK-I, SGAD--Phe--Tyr--Pro--Trp--Gly--NH2]
- EC50 ([4]; Coast et al., 1990): 0.078 nM
- Cricket Malpighian tubule fluid secretion Maximum response (%) [4]: 86%
- Cockroach (Leucophaea maderae) hindgut contraction threshold (pM) ± (S.D.) [5]: 82 pM

Molecule: SKYVSQK-Phe--Phe--Ser--Trp--Gly--NH2 [Cus-DP-III]
- hydrolysis by ACE [6]: hydrolyze
